Reference: the supplement of paper PMC10307832

How the values were obtained:
Experiment in all cases: relative viability (nuclei count vs DMSO), 5 days (fraction); higher = more cells survive
[1] = compound: C1=CC2=NC=CN=C2C=C1/C=C/3\C(=O)NC(=O)S3 + Nc1nc2[nH]cc(CCc3ccc(C(=O)N[C@@H](CCC(=O)O)C(=O)O)cc3)c2c(=O)[nH]1 [Pemetrexed] (partner 0.2 µM)
Outline: (§1)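 Lung cancer cell lines, seeded in 1536-well plates, were treated the following day by pin tool with a single drug or with five library-drug doses (not always all listed) in √10 steps on top of a fixed anchor-drug dose. Cells were fixed and nuclei stained in one step after 5 days, and nuclei were counted. Relative viability is the nuclei count for treated wells divided by that for vehicle wells, reported as medians of duplicate plates.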

BGJ398 + OSI-027 = compound: CCN1CCN(c2ccc(Nc3cc(N(C)C(=O)Nc4c(Cl)c(OC)cc(OC)c4Cl)ncn3)cc2)CC1 [BGJ398] + COc1cccc2cc(-c3nc([C@H]4CC[C@H](C(=O)O)CC4)n4ncnc(N)c34)[nH]c12 [OSI-027] (partner 0.5 µM)
Outline: as §1

BGJ398 + Decitabine = compound: CCN1CCN(c2ccc(Nc3cc(N(C)C(=O)Nc4c(Cl)c(OC)cc(OC)c4Cl)ncn3)cc2)CC1 [BGJ398] + Nc1ncn([C@H]2C[C@H](O)[C@@H](CO)O2)c(=O)n1 [Decitabine] (partner 2 µM)
Outline: as §1

BGJ398 + Olaparib = compound: CCN1CCN(c2ccc(Nc3cc(N(C)C(=O)Nc4c(Cl)c(OC)cc(OC)c4Cl)ncn3)cc2)CC1 [BGJ398] + O=C(c1cc(Cc2n[nH]c(=O)c3ccccc23)ccc1F)N1CCN(C(=O)C2CC2)CC1 [Olaparib] (partner 8 µM)
Outline: as §1

Row | Cell Line | relative viability ([1]; first compound 0.02 µM) | relative viability ([1]; first compound 0.06325 µM) | relative viability ([1]; first compound 0.2 µM) | relative viability ([1]; first compound 0.6325 µM) | relative viability ([1]; first compound 2 µM) | relative viability (BGJ398 + OSI-027; first compound 0.01 µM) | relative viability (BGJ398 + OSI-027; first compound 0.03162 µM) | relative viability (BGJ398 + OSI-027; first compound 0.1 µM) | relative viability (BGJ398 + OSI-027; first compound 0.3162 µM) | relative viability (BGJ398 + OSI-027; first compound 1 µM) | relative viability (BGJ398 + Decitabine; first compound 0.01 µM) | relative viability (BGJ398 + Decitabine; first compound 0.03162 µM) | relative viability (BGJ398 + Decitabine; first compound 0.1 µM) | relative viability (BGJ398 + Decitabine; first compound 0.3162 µM) | relative viability (BGJ398 + Decitabine; first compound 1 µM) | relative viability (BGJ398 + Olaparib; first compound 0.01 µM) | relative viability (BGJ398 + Olaparib; first compound 0.03162 µM) | relative viability (BGJ398 + Olaparib; first compound 0.1 µM) | relative viability (BGJ398 + Olaparib; first compound 0.3162 µM) | relative viability (BGJ398 + Olaparib; first compound 1 µM)
1 | NCI-H1437 | 0.345 | 0.291 | 0.293 | 0.289 | 0.265 | 0.807 | 0.867 | 0.873 | 0.865 | 0.926 | 0.59 | 0.532 | 0.606 | 0.598 | 0.515 | 0.687 | 0.629 | 0.587 | 0.607 | 0.666
2 | COR-L23 | 0.187 | 0.202 | 0.202 | 0.19 | 0.179 | 0.787 | 0.88 | 0.848 | 0.667 | 0.8 | 0.36 | 0.438 | 0.507 | 0.42 | 0.365 | 0.337 | 0.337 | 0.308 | 0.337 | 0.313
3 | ABC-1 | – | – | – | – | – | 0.435 | 0.505 | 0.442 | 0.403 | 0.408 | 1.17 | 0.955 | 0.966 | – | 1.18 | 0.864 | 0.934 | 0.887 | – | 0.616
4 | SW 900 | 0.491 | 0.471 | 0.481 | – | 0.487 | 0.602 | 0.604 | 0.545 | 0.368 | 0.358 | 0.447 | 0.421 | 0.371 | 0.469 | 0.43 | 0.867 | 0.822 | 0.851 | 0.679 | 0.761
5 | NCI-H838 | 0.247 | 0.272 | 0.25 | 0.238 | 0.197 | 0.297 | 0.357 | 0.376 | 0.338 | 0.294 | 0.389 | 0.463 | 0.552 | 0.463 | 0.378 | 0.731 | 0.754 | 0.749 | 0.741 | 0.667
6 | NCI-H1648 | 0.648 | 0.576 | 0.649 | – | 0.777 | 0.245 | 0.292 | 0.246 | 0.26 | 0.235 | 0.571 | – | 0.511 | 0.476 | 0.402 | 0.658 | – | 1.18 | 0.85 | 0.487
7 | A549 | – | – | – | – | – | – | – | – | – | – | 0.155 | 0.288 | 0.232 | 0.289 | 0.223 | 0.341 | 0.436 | 0.6 | 0.231 | 0.231
8 | A-427 | 0.963 | 1.03 | 0.959 | 0.96 | 0.903 | 0.375 | 0.365 | 0.309 | 0.235 | 0.285 | 0.559 | 0.564 | 0.594 | 0.515 | 0.481 | 0.746 | 0.713 | 0.761 | 0.736 | 0.538
9 | NCI-H1792 | 0.755 | – | 0.756 | 0.831 | 0.47 | 0.684 | 0.731 | 0.762 | 0.581 | 0.416 | 0.476 | 0.533 | 0.568 | 0.474 | 0.441 | 0.494 | 0.351 | 0.281 | 0.607 | 0.282
10 | LCLC-97TM1 | 0.138 | 0.199 | 0.187 | 0.152 | 0.152 | 0.381 | 0.578 | 0.464 | 0.567 | 0.528 | 0.238 | 0.222 | 0.214 | 0.216 | 0.225 | 0.294 | 0.393 | 0.443 | 0.508 | 0.277
11 | NCI-H1703 | – | – | – | – | – | – | – | – | – | – | – | – | – | – | – | 0.342 | 0.396 | 0.379 | 0.364 | 0.543
12 | LCLC-103H | 0.464 | 0.438 | 0.473 | 0.448 | 0.447 | 0.495 | 0.406 | 0.44 | 0.367 | 0.382 | 0.714 | 0.631 | 0.67 | 0.628 | 0.566 | 0.756 | 0.787 | 0.726 | 0.717 | 0.596
13 | PC-3 [JPC-3] | 1.19 | 1.17 | 1.2 | 1.19 | 1.23 | 0.738 | – | 0.76 | 0.578 | 0.676 | 0.782 | – | 0.777 | – | 0.878 | 1.12 | – | 1.26 | – | 1.15
14 | BEN | 0.824 | 0.813 | 0.773 | 0.836 | 0.644 | 0.319 | 0.259 | 0.279 | 0.266 | 0.276 | 0.604 | 0.688 | 0.796 | 0.681 | 0.591 | 1.09 | 1.19 | 1.18 | 0.991 | 0.861
15 | NCI-H1666 | 0.898 | 0.548 | 0.838 | 0.96 | 0.759 | 0.859 | 0.834 | 0.862 | 0.886 | 0.764 | 0.634 | 0.763 | 0.814 | 0.68 | 0.506 | 0.759 | 0.77 | 0.81 | 0.725 | 0.679
16 | Calu-6 | – | – | – | – | – | – | – | – | – | – | – | – | – | – | – | 0.599 | 0.605 | 0.578 | 0.58 | 0.59
17 | EBC-1 | – | – | – | – | – | – | – | – | – | – | – | – | – | – | – | 0.717 | 0.717 | 0.679 | 0.737 | 0.668
18 | NCI-H1299 | – | – | – | – | – | – | – | – | – | – | – | – | – | – | – | 0.961 | 0.971 | 0.977 | 1 | 0.999
19 | NCI-H2228 | 0.358 | 0.34 | 0.332 | 0.293 | 0.321 | 0.525 | 0.535 | 0.67 | 0.501 | 0.717 | – | – | – | – | – | 0.606 | 0.765 | 0.512 | 0.594 | 0.441
20 | IA-LM | – | – | – | – | – | – | – | – | – | – | – | – | – | – | – | 0.772 | 0.841 | 0.917 | 0.742 | 0.79
21 | NCI-H727 | – | – | – | – | – | 0.595 | 0.791 | 0.543 | 0.519 | 0.745 | 0.859 | 0.862 | 0.965 | 0.862 | 0.669 | 0.707 | 0.629 | 0.717 | 0.653 | 0.641
22 | CAL-12T | 1.03 | 1.31 | 1.34 | 1.09 | 1.28 | 0.539 | 0.773 | 0.83 | 0.673 | 0.491 | – | – | – | – | – | 0.688 | 0.819 | 0.613 | 0.773 | 0.666
